In publication PMC7839693 (Chemistry (Weinheim an Der Bergstrasse, Germany), 2020):

Experiments:
[1] = molecular target: E. coli β‐glucuronidase (Escherichia coli, UniProt P05804); test: β-glucuronidase cleavage assay / drug release; format: in vitro ADME
[2] = system: M21 human melanoma cells; test: In vitro cytotoxicity assay; format: cell-based; details: incubated alone (no β-glucuronidase)
[3] = molecular target: human integrin αvβ3 (Homo sapiens, UniProt P05106+P06756, DEL719-788); test: Solid-phase receptor binding assay
[4] = cited from earlier work
[5] = cited from earlier work; remark: listed apart in the source
[6] = Pilot experiment: stability of Cry-55gly under alkaline conditions; format: physicochemical; details: LiOH/H2O, 0 °C, 30 minutes, HPLC-MS

Row | Structure (SMILES) | release of Cry-55gly after β-glucuronidase cleavage ([1]; E. coli β-glucuronidase 200 U mL-1, 37 °C, 60 min, HPLC and UPLC-MS) | stability in the absence of enzyme (control) ([1]; control experiments without β-glucuronidase, buffer, 37 °C, HPLC) | decreased activity relative to the free drug 3 [2] | IC50 [3] | stability in mouse plasma [4] | stability in human plasma [5] | conversion into the epoxide (cryptophycin-52, 4) [6]
1 | COc1ccc(C[C@H]2NC(=O)/C=C/C[C@@H]([C@H](C)[C@@H](OC(=O)CNC(=O)OCc3cc(NC(=O)CCCc4cn(CCC(=O)NCCCC[C@@H]5NC(=O)[C@@H](Cc6ccccc6)NC(=O)[C@H](CC(=O)O)NC(=O)CNC(=O)[C@H](CCCNC(=N)N)NC5=O)nn4)cc(O[C@@H]4O[C@H](C(=O)O)[C@@H](O)[C@H](O)[C@H]4O)c3)[C@@H](Cl)c3ccccc3)OC(=O)[C@H](CC(C)C)OC(=O)C(C)(C)CNC2=O)cc1Cl [compound 2, c(RGDfK)‐(m)‐GlcA‐linker‐Cry‐55gly] | not released over time | stable | 70 fold | 11.7 nM | – | – | –
2 | COc1ccc(C[C@H]2NC(=O)/C=C/C[C@@H]([C@H](C)[C@@H](OC(=O)CN)[C@@H](Cl)c3ccccc3)OC(=O)[C@H](CC(C)C)OC(=O)C(C)(C)CNC2=O)cc1Cl [compound 3, cryptophycin‐55 glycinate] | – | – | – | – | excellent stability | excellent stability | 70%
